Reference: patent US20210236512A1 (ZARODEX THERAPEUTICS LIMITED, priority 2018, published 2021)

Experiments:
[1] = in vivo; cited from earlier work
[2] = system: B cell subsets in bone marrow; experiment: Wild type mouse study: bone marrow B cell immunophenotyping by flow cytometry; details: haloperidol 1 mg/kg IP, 21 days
[3] = system: B cell subsets and T cells in spleen; experiment: Wild type mouse study: spleen immunophenotyping by flow cytometry; details: haloperidol 1 mg/kg
[4] = system: total peripheral blood B-cells isolated from healthy donors; assay type: cell-based, human; details: clozapine 25-350 ng/ml, norclozapine 15-200 ng/ml, haloperidol 2-25 ng/ml; for Ability of differentiated ASCs to secrete antibody (total IgM/IgG ELISA): day 6 and day 9
Experimental: The experiment was performed from four independent donors.

SMILES	LD50 [1] [mg/kg]	Early developing B cell subsets in bone marrow (overall B, pre-pro B, pro-B) [2]	Effect on long-lived plasma cells in the bone marrow [2]	Reduction of activated T cells (B220+TCR-b+) in spleen [3]	Impact on B cell subpopulations ([3]; comparator)	Functional or phenotypic maturation of activated B cells to an early PC state [4]	Ability of differentiated ASCs to secrete antibody (total IgM/IgG ELISA) [4]
O=C(CCCN1CCC(O)(c2ccc(Cl)cc2)CC1)c1ccc(F)cc1 [Haloperidol, haloperidol]	30	no significant effect	no effect	modestly apparent	not observed	no consistent inhibitory effect	no consistent effect
Clc1ccc2c(c1)N=C(N1CCNCC1)c1ccccc1N2 [norclozapine]						no consistent inhibitory effect	no consistent effect
